This is an account of results in the RepoRT retention time repository.

This series is described as follows: A: acetonitrile + 0.1% formic acid + 10 mM ammonium formate; B: 5% water + 95% acetonitrile + 0.1% formic acid + 10 mM ammonium formate; gradient (min/%B) 0/10 2/10 22/100 27/100 27.1/10. The conditions noted are these: stereoisomer not certain.

Each structure is given as a SMILES string.

Turning to `NC[C@@H](O)CC(=O)O` [(S)-(+)-4-Amino-3-hydroxybutyric acid], the LC retention time is 6.5 min.

With `O=c1cc(-c2ccccc2)oc2cc(O)cc(O)c12` [Chrysin], the LC retention time was 0.434 min.

Take `CC(=O)N[C@@H](CS)C(=O)O` [N-Acetyl-L-cysteine]: the LC retention time came out at 3.49 min.

`C=C(OP(=O)(O)O)C(=O)O` [Phospho(enol)pyruvic Acid]: the LC retention time was 7.08 min.

As to `CC1=CC(=O)C(C)O1` (centres undefined) [2,5-Dimethyl-2,3-dihydrofuran-3-one], the LC retention time turned out to be 0.451 min.

With `NC(=O)c1ncn(C2OC(CO)C(O)C2O)n1` (centres undefined) [Ribavirin], the LC retention time is 3.11 min.

As to `Nc1ccn(C2CC(O)C(CO)O2)c(=O)n1` (centres undefined) [2'-Deoxycytidine], the LC retention time is 3.51 min.

On to `Nc1nc2c(ncn2C2OC(CO)C(O)C2O)c(=O)[nH]1` (centres undefined) [Guanosine], for which the LC retention time worked out at 4.96 min.

Take `CC(=O)C1=CCC2C3CCC4=CC(=O)CCC4(C)C3CCC12C` (centres undefined) [16-Dehydroprogesterone]: the LC retention time is 0.423 min.

Take `O=C(O)/C=C/c1ccccc1` [trans-Cinnamic acid]: the LC retention time was 0.485 min.

`CN[C@H](CC(=O)O)C(=O)O` [N-Methyl-D-aspartic acid]: the LC retention time is 7.02 min.

For `NC(=O)NCCC(=O)O` [3-Ureidopropionic acid], the LC retention time turned out to be 4.57 min.

With `O=c1cc(-c2ccc(O)c(O)c2)oc2cc(O)cc(O)c12` [Luteolin], the LC retention time stood at 0.593 min.

As to `O=C(O)C(c1ccccc1)C1CCCCN1` (centres undefined) [Ritalinic Acid], the LC retention time was found to be 3.41 min.

In the case of `O=c1ccn(C2OC(COP(=O)(O)O)C(O)C2O)c(=O)[nH]1` (centres undefined) [Uridine-5'-phosphoric acid], the LC retention time worked out at 6.86 min.

For the compound `Nc1nc(N)c2nc(-c3ccccc3)c(N)nc2n1` [Triamterene], the LC retention time amounted to 2.5 min.

For the compound `CCCCc1oc2ccccc2c1C(=O)c1cc(I)c(OCCN(CC)CC)c(I)c1` [Amiodarone], the LC retention time worked out at 0.756 min.

`O=C(O)c1ccc2ccccc2n1` [Quinaldic acid]: the LC retention time came out at 1.48 min.

For the compound `CCC(=O)OCC(=O)C1(OC(=O)CC)C(C)CC2C3CCC4=CC(=O)C=CC4(C)C3(Cl)C(O)CC21C` (centres undefined) [Beclometasone dipropionate], the LC retention time was found to be 0.416 min.

With `N[C@@H](Cc1ccc(O)c(O)c1)C(=O)O` [L-Dopa], the LC retention time was determined as 6.06 min.

With `CC(C)n1c(C=CC(O)CC(O)CC(=O)O)c(-c2ccc(F)cc2)c2ccccc21` (centres undefined) [Fluvastatin], the LC retention time worked out at 0.561 min.

`C[n+]1cccc(C(=N)[O-])c1` [1-Methylnicotinamide]: the LC retention time worked out at 4.68 min.

Regarding `CN(C)CC(=O)O` [N,N-Dimethylglycine], the LC retention time stood at 5.8 min.

As for `O=c1ccc2ccccc2o1` [Coumarin], the LC retention time was found to be 0.431 min.

Turning to `CC1=CCC2CC1C2(C)C` (single isomer, unassigned; (-)) [(-)-alpha-Pinene], the LC retention time was found to be 0.438 min.

Turning to `NC(=O)NC(NC(N)=O)C(=O)O` [Allantoic acid], the LC retention time came to 6.54 min.

Consider `CN(CC(=O)O)C(N)=NP(=O)(O)O` [Creatine phosphate], for which the LC retention time stood at 7.86 min.

Consider `COc1cc(CC(=O)O)ccc1O` [4-Hydroxy-3-methoxyphenylacetic Acid], for which the LC retention time turned out to be 0.535 min.

Consider `CC(C)NCC(O)COc1ccc(CC(N)=O)cc1` (centres undefined) [Atenolol], for which the LC retention time came to 3.34 min.

For the compound `C[S+](CC[C@H](N)C(=O)[O-])C[C@H]1O[C@@H](n2cnc3c(N)ncnc32)[C@H](O)[C@@H]1O` (stereo partly drawn) [S-(5'-Adenosyl)-L-methionine], the LC retention time came out at 8.08 min.

On to `CC(=O)NC(CCC(=O)O)C(=O)O` (centres undefined) [N-Acetylglutamic acid], for which the LC retention time came out at 5.85 min.

For `Cn1c(=O)c2c(ncn2C)n(C)c1=O` [Caffeine], the LC retention time worked out at 0.477 min.

Consider `O=c1ccc2cc(OC3OC(CO)C(O)C(O)C3O)c(O)cc2o1` (centres undefined) [Esculin], for which the LC retention time is 2.52 min.

For the compound `O=C(O)CNC(=O)c1ccc(O)cc1` [2-[(4-Hydroxyphenyl)formamido]acetic acid], the LC retention time came to 3.64 min.

In the case of `O=P(O)(O)OCC1OC(O)C(O)C(O)C1O` [D-Glucose 6-phosphate], the LC retention time stood at 7.76 min.

Regarding `O=C(O)CNC(=O)c1cccc(O)c1` [m-Hydroxyhippuric Acid], the LC retention time was found to be 3.46 min.

For `CC(=O)C1(O)CCC2C3CCC4=CC(=O)CCC4(C)C3CCC21C` (stereo not drawn) [17-alpha-Hydroxyprogesterone], the LC retention time stood at 0.437 min.

`C[N+](C)(C)CCOP(=O)([O-])OCC(O)CO` (centres undefined) [sn-glycero-3-Phosphocholine]: the LC retention time amounted to 7.21 min.

Take `CC(=O)Oc1cc(C)c(OC(C)=O)c2ccccc12` [Vitamin K4]: the LC retention time came to 0.412 min.

`CCOC(=O)c1ccc(N)cc1` [Ethyl 4-aminobenzoate]: the LC retention time is 0.422 min.

In the case of `Cc1ncc(CO)c(C(=O)O)c1O` [4-Pyridoxic acid], the LC retention time amounted to 0.875 min.

As for `CC(=CC(=O)O)C(=O)O` [Citraconic acid], the LC retention time amounted to 0.78 min.

Consider `O=C(O)c1cccnc1` [Nicotinic acid], for which the LC retention time was found to be 2.44 min.

Consider `CC(=O)N[C@@H](C)C(=O)O` [N-Acetyl-L-alanine], for which the LC retention time came out at 4.36 min.

For the compound `C[N+](C)(C)C[C@H](O)CC(=O)[O-]` [L-Carnitine], the LC retention time stood at 6.22 min.

In the case of `O=C(O)CNC(=O)c1cccnc1` [Nicotinuric acid], the LC retention time worked out at 5.19 min.

Turning to `O=C(O)c1cc(=O)c2ccccc2[nH]1` [Kynurenic acid], the LC retention time came to 3.56 min.

For `NC(=O)N1c2ccccc2C=Cc2ccccc21` [Carbamazepine], the LC retention time was determined as 0.469 min.

Regarding `O=C1CCc2ccc(OCCCCN3CCN(c4cccc(Cl)c4Cl)CC3)cc2N1` [Aripiprazole], the LC retention time came to 1.25 min.

Consider `Cc1c(OCC(F)(F)F)ccnc1CS(=O)c1nc2ccccc2[nH]1` (centres undefined) [Lansoprazole], for which the LC retention time was 0.475 min.

`CN(C)CCCN1c2ccccc2CCc2ccccc21` [Imipramine]: the LC retention time stood at 0.939 min.

As to `CC(C)C(N)CC(=O)O` (racemic) [DL-beta-Leucine], the LC retention time was determined as 5.29 min.

For the compound `Cn1cnc(=N)c2[nH]cnc21` [3-Methyladenine], the LC retention time stood at 2.75 min.

As to `COc1ccc(-c2coc3cc(O)cc(O)c3c2=O)cc1` [Biochanin A], the LC retention time was determined as 0.424 min.

On to `Nc1ncnc2c1ncn2C1CC(O)C(CO)O1` (centres undefined) [2'-Deoxyadenosine], for which the LC retention time worked out at 1.39 min.

As for `c1coc(Cn2cccc2)c1` [1-Furfurylpyrrole], the LC retention time amounted to 0.425 min.

In the case of `Cc1cc2nc[nH]c2cc1C` [5,6-Dimethylbenzimidazole], the LC retention time came to 0.733 min.

With `CC=CC=CC(=O)O` [Sorbic acid], the LC retention time stood at 0.486 min.

Consider `COc1ccccc1OCCNCC(O)COc1cccc2[nH]c3ccccc3c12` (centres undefined) [Carvedilol], for which the LC retention time stood at 1.03 min.

As for `C=C1CCC2CC1C2(C)C` (stereo not drawn) [beta-Pinene], the LC retention time was determined as 0.452 min.

Regarding `OC[C@H]1O[C@@H](O[C@H]2[C@H](O)[C@@H](O)[C@H](O)O[C@@H]2CO)[C@H](O)[C@@H](O)[C@H]1O` [beta-Lactose], the LC retention time was found to be 6.75 min.

Take `NCC(CC(=O)O)c1ccc(Cl)cc1` (centres undefined) [Baclofen]: the LC retention time was 4.14 min.

For `C[C@@H](O)[C@H](N)C(=O)O` [L-Threonine], the LC retention time was found to be 6.22 min.

For `NCCCCN=C(N)N` [Agmatine], the LC retention time amounted to 6.99 min.

In the case of `O=C(O)C/C=C/CC(=O)O` [trans-2-Butene-1,4-dicarboxylic Acid], the LC retention time is 5.56 min.

As to `CC1OC(OCC2OC(Oc3c(-c4ccc(O)c(O)c4)oc4cc(O)cc(O)c4c3=O)C(O)C(O)C2O)C(O)C(O)C1O` (centres undefined) [Rutin], the LC retention time worked out at 4.42 min.

Consider `Cc1ccnc2c1NC(=O)c1cccnc1N2C1CC1` [Nevirapine], for which the LC retention time turned out to be 0.596 min.

For the compound `NC(=O)C(N)Cc1c[nH]c2ccccc12` (centres undefined) [H-Trp-NH2], the LC retention time is 3.39 min.

`CN[C@@H](CCC(=O)O)C(=O)O` [N-Methyl-L-glutamic acid]: the LC retention time was found to be 6.54 min.

As to `N[C@@H](Cc1ccccc1)C(=O)O` [L-Phenylalanine], the LC retention time worked out at 4.83 min.

As for `O=C(O)C1CCCCN1` (stereo not drawn) [L(-)-Pipecolinic acid], the LC retention time came out at 5.85 min.

On to `CC1=C(CC(=O)O)c2cc(F)ccc2C1=Cc1ccc(S(C)=O)cc1` (centres undefined) [Sulindac], for which the LC retention time amounted to 0.56 min.

For the compound `N[C@H]1C(O)O[C@H](COP(=O)(O)O)[C@@H](O)[C@@H]1O` (stereo partly drawn) [D-Glucosamine 6-phosphate], the LC retention time was 8.21 min.

With `CC(=O)N[C@@H](CCCN)C(=O)O` [N-Acetyl-L-ornithine], the LC retention time was determined as 6.58 min.

Turning to `Cn1c(=O)[nH]c2[nH]c(=O)[nH]c2c1=O` [1-Methyluric acid], the LC retention time was 3.32 min.

Consider `Cn1c(=O)[nH]c(=O)c2[nH]cnc21` [3-Methylxanthine], for which the LC retention time was determined as 1.15 min.

Consider `NCCc1c[nH]c2ccc(O)cc12` [Serotonin], for which the LC retention time was found to be 3.29 min.

With `CC12CC3CC(C)(C1)CC(N)(C3)C2` [Memantine], the LC retention time was 1.94 min.

As to `CCC[C@H](N)C(=O)O` [L-Norvaline], the LC retention time was 5.65 min.

Consider `O=C(O)c1c[nH]c2ccccc12` [Indole-3-carboxylic acid], for which the LC retention time came to 0.506 min.

As to `NCCS(=O)O` [Hypotaurine], the LC retention time was found to be 6.07 min.

As for `CCCCNC(=O)NS(=O)(=O)c1ccc(C)cc1` [Tolbutamide], the LC retention time turned out to be 0.432 min.

Regarding `O=c1cc(CO)occ1O` [Kojic acid], the LC retention time turned out to be 1.22 min.

`NC(N)=NC(=O)c1nc(Cl)c(N)nc1N` [Amiloride]: the LC retention time is 2.91 min.
